Measured values taken from PMC5218480 (PLoS ONE, 2017).

System: MV-4-11 cells
Test: Gene expression microarray analysis (Affymetrix PrimeView) and GSEA
Type: cell-based, human
Parameters: RFU PODN (11730768_x_at) / Fold change /veh PODN (11730768_x_at) / RFU LINC00158 (11744669_a_at) / Fold change /veh LINC00158 (11744669_a_at) / RFU DUSP10 (11751237_a_at) / Fold change /veh DUSP10 (11751237_a_at) / RFU ID3 (11757404_x_at) / Fold change /veh ID3 (11757404_x_at) / RFU PLEKHG5 (11737974_s_at) / Fold change /veh PLEKHG5 (11737974_s_at) / RFU LRRC4B (11730491_at) / Fold change /veh LRRC4B (11730491_at) / RFU GIMAP4 (11747438_a_at) / Fold change /veh GIMAP4 (11747438_a_at) / RFU KRT8 (11758183_x_at) / Fold change /veh KRT8 (11758183_x_at) / RFU CNN1 (11734310_a_at) / Fold change /veh CNN1 (11734310_a_at) / RFU VPS37D (11726825_at) / Fold change /veh VPS37D (11726825_at) / RFU C10orf10 (11716522_x_at) / Fold change /veh C10orf10 (11716522_x_at) / RFU KIR2DL2 /// KIR2DL4 /// KIR2DL5A /// KIR2DL5B /// KIR2DS1 /// KIR2DS2 /// KIR2DS3 /// KIR2DS4 /// KIR3DL3 /// KIR3DL3 /// KIR3DS1 (11738374_at) / Fold change /veh KIR2DL2 /// KIR2DL4 /// KIR2DL5A /// KIR2DL5B /// KIR2DS1 /// KIR2DS2 /// KIR2DS3 /// KIR2DS4 /// KIR3DL3 /// KIR3DL3 /// KIR3DS1 (11738374_at) / RFU C1QL1 (11718748_at) / Fold change /veh C1QL1 (11718748_at) / RFU TMPRSS4 (11747572_a_at) / Fold change /veh TMPRSS4 (11747572_a_at) / RFU HAMP (11756126_x_at) / Fold change /veh HAMP (11756126_x_at) / RFU RNFT2 (11725882_a_at) / Fold change /veh RNFT2 (11725882_a_at) / RFU NR4A2 (11747474_a_at) / Fold change /veh NR4A2 (11747474_a_at) / RFU ABCC12 (11746883_a_at) / Fold change /veh ABCC12 (11746883_a_at) / RFU TMEM136 (11760407_x_at) / Fold change /veh TMEM136 (11760407_x_at) / RFU CLDN22 /// WWC2 (11732394_at) / Fold change /veh CLDN22 /// WWC2 (11732394_at) / RFU HLA-DPB1 (11760878_x_at) / Fold change /veh HLA-DPB1 (11760878_x_at) / RFU SPINT1 (11716480_a_at) / Fold change /veh SPINT1 (11716480_a_at) / RFU GAP43 (11754022_s_at) / Fold change /veh GAP43 (11754022_s_at) / RFU A4GNT (11735810_at) / Fold change /veh A4GNT (11735810_at) / RFU PRB3 (11715151_x_at) / Fold change /veh PRB3 (11715151_x_at) / RFU TUBB4B (11761932_at) / Fold change /veh TUBB4B (11761932_at) / RFU CAPN14 (11732068_a_at) / Fold change /veh CAPN14 (11732068_a_at) / RFU TMCC2 (11721928_a_at) / Fold change /veh TMCC2 (11721928_a_at) / RFU IRGQ (11745062_a_at) / Fold change /veh IRGQ (11745062_a_at) / RFU FAM174B (11720279_a_at) / Fold change /veh FAM174B (11720279_a_at) / RFU TMPRSS4 (11748680_a_at) / Fold change /veh TMPRSS4 (11748680_a_at) / RFU FAM212B (11763350_a_at) / Fold change /veh FAM212B (11763350_a_at) / RFU PLEKHG5 (11743358_a_at) / Fold change /veh PLEKHG5 (11743358_a_at) / RFU ZSCAN30 (11745921_a_at) / Fold change /veh ZSCAN30 (11745921_a_at) / RFU CMKLR1 (11741424_a_at) / Fold change /veh CMKLR1 (11741424_a_at) / RFU LOC101060620 /// MAPK8IP1 (11723275_at) / Fold change /veh LOC101060620 /// MAPK8IP1 (11723275_at) / RFU SPTSSB (11747773_x_at) / Fold change /veh SPTSSB (11747773_x_at) / RFU PRSS12 (11739890_at) / Fold change /veh PRSS12 (11739890_at) / RFU BIN1 (11741810_x_at) / Fold change /veh BIN1 (11741810_x_at) / RFU WNT11 (11732464_a_at) / Fold change /veh WNT11 (11732464_a_at) / RFU C10orf10 (11716521_a_at) / Fold change /veh C10orf10 (11716521_a_at) / RFU C5orf56 (11738089_at) / Fold change /veh C5orf56 (11738089_at) / RFU CYB561 (11721691_x_at) / Fold change /veh CYB561 (11721691_x_at) / RFU ANKRD19P (11752326_a_at) / Fold change /veh ANKRD19P (11752326_a_at) / RFU OR2T12 /// OR2T33 /// OR2T8 (11738714_s_at) / Fold change /veh OR2T12 /// OR2T33 /// OR2T8 (11738714_s_at) / RFU VCAN (11748164_a_at) / Fold change /veh VCAN (11748164_a_at) / RFU JSRP1 (11732532_at) / Fold change /veh JSRP1 (11732532_at) / RFU KRTAP10-11 (11738290_x_at) / Fold change /veh KRTAP10-11 (11738290_x_at) / RFU MYO3A (11730013_a_at) / Fold change /veh MYO3A (11730013_a_at) / RFU EBF3 (11725865_a_at) / Fold change /veh EBF3 (11725865_a_at) / RFU CAMK2N1 (11719241_x_at) / Fold change /veh CAMK2N1 (11719241_x_at) / RFU C5orf56 (11738088_a_at) / Fold change /veh C5orf56 (11738088_a_at) / RFU OLFML3 (11715873_a_at) / Fold change /veh OLFML3 (11715873_a_at) / RFU LOC100653217 /// NTM (11731650_a_at) / Fold change /veh LOC100653217 /// NTM (11731650_a_at) / RFU MAPK11 (11762145_a_at) / Fold change /veh MAPK11 (11762145_a_at) / RFU FIZ1 (11724087_x_at) / Fold change /veh FIZ1 (11724087_x_at) / RFU OASL (11726364_x_at) / Fold change /veh OASL (11726364_x_at) / RFU SOX15 (11748057_x_at) / Fold change /veh SOX15 (11748057_x_at) / RFU CD79A (11719716_a_at) / Fold change /veh CD79A (11719716_a_at) / RFU HIST1H1D (11736915_at) / Fold change /veh HIST1H1D (11736915_at) / RFU CASKIN2 (11723855_a_at) / Fold change /veh CASKIN2 (11723855_a_at) / RFU LOC730098 (11760151_x_at) / Fold change /veh LOC730098 (11760151_x_at) / RFU OR4N2 (11742367_at) / Fold change /veh OR4N2 (11742367_at) / RFU PRRT2 (11749266_a_at) / Fold change /veh PRRT2 (11749266_a_at) / RFU SNX32 (11753110_a_at) / Fold change /veh SNX32 (11753110_a_at) / RFU CDHR5 (11726645_a_at) / Fold change /veh CDHR5 (11726645_a_at) / RFU RCAN1 (11760418_a_at) / Fold change /veh RCAN1 (11760418_a_at) / RFU FAM167A (11723789_a_at) / Fold change /veh FAM167A (11723789_a_at) / RFU FAM26E (11764081_at) / Fold change /veh FAM26E (11764081_at) / RFU ISYNA1 (11749810_s_at) / Fold change /veh ISYNA1 (11749810_s_at) / RFU ACY1 (11761880_at) / Fold change /veh ACY1 (11761880_at) / RFU 11764098_at / Fold change /veh 11764098_at / RFU SAMD14 (11745864_x_at) / Fold change /veh SAMD14 (11745864_x_at) / RFU NPB (11741838_a_at) / Fold change /veh NPB (11741838_a_at) / RFU TMPRSS6 (11731388_a_at) / Fold change /veh TMPRSS6 (11731388_a_at) / RFU KRTAP10-2 (11738614_at) / Fold change /veh KRTAP10-2 (11738614_at) / RFU ARHGAP8 /// PRR5-ARHGAP8 (11727945_x_at) / Fold change /veh ARHGAP8 /// PRR5-ARHGAP8 (11727945_x_at) / RFU KRTAP5-7 /// NADSYN1 (11734609_at) / Fold change /veh KRTAP5-7 /// NADSYN1 (11734609_at) / RFU RASL12 (11751679_a_at) / Fold change /veh RASL12 (11751679_a_at) / RFU CDKN2B (11736163_a_at) / Fold change /veh CDKN2B (11736163_a_at) / RFU PRF1 (11729649_at) / Fold change /veh PRF1 (11729649_at) / RFU, ZNF638 /// ZNF638-IT1 / Fold change vs veh, ZNF638 /// ZNF638-IT1 / RFU, PANK3 / Fold change vs veh, PANK3 / RFU, SH3YL1 / Fold change vs veh, SH3YL1 / RFU, ZEB2 / Fold change vs veh, ZEB2 / RFU, NRIP1 / Fold change vs veh, NRIP1 / RFU, PTTG1IP / Fold change vs veh, PTTG1IP / RFU, CAPN2 / Fold change vs veh, CAPN2 / RFU, MED14 / Fold change vs veh, MED14 / RFU, SNORA58 / Fold change vs veh, SNORA58 / RFU, C1orf63 / Fold change vs veh, C1orf63 / RFU, LRRFIP1 / Fold change vs veh, LRRFIP1 / RFU, NDUFAF7 / Fold change vs veh, NDUFAF7 / RFU, SLC12A2 / Fold change vs veh, SLC12A2 / RFU, IBTK / Fold change vs veh, IBTK / RFU, ESF1 / Fold change vs veh, ESF1 / Fold change vs veh, TMEM50B / RFU, TAOK1 / Fold change vs veh, TAOK1 / RFU, ACBD3 / Fold change vs veh, ACBD3 / RFU, TMA16 / Fold change vs veh, TMA16 / RFU, RWDD3 / Fold change vs veh, RWDD3 / RFU, BCAT1 / Fold change vs veh, BCAT1 / RFU, EDEM3 / Fold change vs veh, EDEM3 / RFU, TMEM33 / Fold change vs veh, TMEM33 / RFU, WDR75 / Fold change vs veh, WDR75 / RFU, AHCTF1 / Fold change vs veh, AHCTF1 / RFU, TFRC / Fold change vs veh, TFRC / RFU, ZDHHC17 / Fold change vs veh, ZDHHC17 / RFU, NOM1 / Fold change vs veh, NOM1 / RFU, ARL8B / Fold change vs veh, ARL8B / RFU, ZBTB11 / Fold change vs veh, ZBTB11 / RFU, TAMM41 / Fold change vs veh, TAMM41 / RFU, KIAA1704 /// LOC100996395 / Fold change vs veh, KIAA1704 /// LOC100996395 / RFU, ING1 / Fold change vs veh, ING1 / RFU, TRMT61B / Fold change vs veh, TRMT61B / RFU, FUBP3 / Fold change vs veh, FUBP3 / RFU, TP53 / Fold change vs veh, TP53 / RFU, TNKS2 / Fold change vs veh, TNKS2 / RFU, ZFP14 / Fold change vs veh, ZFP14 / RFU, ACTR2 / Fold change vs veh, ACTR2 / RFU, PPP3R1 / Fold change vs veh, PPP3R1 / RFU, PIK3R1 / Fold change vs veh, PIK3R1 / RFU, HNRNPA1 / Fold change vs veh, HNRNPA1 / RFU, RNF170 / Fold change vs veh, RNF170 / RFU, ZNF28 / Fold change vs veh, ZNF28 / RFU, RNGTT / Fold change vs veh, RNGTT / RFU, OGT / Fold change vs veh, OGT / RFU, BRD1 / Fold change vs veh, BRD1 / RFU, MARS / Fold change vs veh, MARS / RFU, ZNF655 / Fold change vs veh, ZNF655 / RFU, FAHD1 / Fold change vs veh, FAHD1 / RFU, BDP1 / Fold change vs veh, BDP1 / RFU, LRRCC1 / Fold change vs veh, LRRCC1 / RFU, ARID1A / Fold change vs veh, ARID1A / RFU, ZNF146 / Fold change vs veh, ZNF146 / RFU, ZNF330 / Fold change vs veh, ZNF330 / RFU, GPN3 / Fold change vs veh, GPN3 / RFU, C9orf123 / Fold change vs veh, C9orf123 / RFU, N4BP2L2 / Fold change vs veh, N4BP2L2 / RFU, ARFIP1 / Fold change vs veh, ARFIP1 / RFU, FAM179B / Fold change vs veh, FAM179B / RFU, BCL10 / Fold change vs veh, BCL10 / RFU, UHRF1BP1L / Fold change vs veh, UHRF1BP1L / RFU, BET1 / Fold change vs veh, BET1 / RFU, CNOT2 / Fold change vs veh, CNOT2 / RFU, ZNF268 / Fold change vs veh, ZNF268 / Fold change vs veh, ZNF507 / RFU, DGCR2 / Fold change vs veh, DGCR2 / RFU, WDSUB1 / Fold change vs veh, WDSUB1 / Fold change vs veh, HSP90B1 /// MIR3652 / RFU, ADSS / Fold change vs veh, ADSS / RFU, GK / Fold change vs veh, GK / RFU, ZNF148 / Fold change vs veh, ZNF148 / RFU, TAF9 / Fold change vs veh, TAF9 / RFU, SLC1A5 / Fold change vs veh, SLC1A5 / RFU, SLMO2 / Fold change vs veh, SLMO2 / RFU, ABCC4 / Fold change vs veh, ABCC4 / RFU, LOC101060439 /// RAP1B / Fold change vs veh, LOC101060439 /// RAP1B / RFU, RFX7 / Fold change vs veh, RFX7 / RFU, GTPBP10 / Fold change vs veh, GTPBP10 / RFU, CNEP1R1 / Fold change vs veh, CNEP1R1 / RFU, BIVM-ERCC5 /// ERCC5 / Fold change vs veh, BIVM-ERCC5 /// ERCC5 / RFU, ILF3 / Fold change vs veh, ILF3 / RFU 11762660_at / Fold change /veh 11762660_at / RFU VCAN (11757783_s_at) / Fold change /veh VCAN (11757783_s_at) / RFU DDX43 (11728927_at) / Fold change /veh DDX43 (11728927_at) / RFU KRT8 (11758188_x_at) / Fold change /veh KRT8 (11758188_x_at) / RFU NKD1 (11759106_at) / Fold change /veh NKD1 (11759106_at) / RFU SRD5A1 (11742802_a_at) / Fold change /veh SRD5A1 (11742802_a_at) / RFU TPSAB1 /// TPSB2 (11721975_s_at) / Fold change /veh TPSAB1 /// TPSB2 (11721975_s_at) / RFU GSTM3 (11746129_a_at) / Fold change /veh GSTM3 (11746129_a_at) / RFU IL23R (11737362_x_at) / Fold change /veh IL23R (11737362_x_at) / RFU TMEM51 (11727254_a_at) / Fold change /veh TMEM51 (11727254_a_at) / RFU PIWIL2 (11732686_x_at) / Fold change /veh PIWIL2 (11732686_x_at) / RFU ORM1 (11744905_x_at) / Fold change /veh ORM1 (11744905_x_at) / RFU CCDC152 (11743942_at) / Fold change /veh CCDC152 (11743942_at) / RFU ECM1 (11717891_a_at) / Fold change /veh ECM1 (11717891_a_at) / RFU IL23R (11748794_a_at) / Fold change /veh IL23R (11748794_a_at) / RFU TNFAIP8L3 (11732012_x_at) / Fold change /veh TNFAIP8L3 (11732012_x_at) / RFU MBOAT4 (11741988_at) / Fold change /veh MBOAT4 (11741988_at) / RFU 11764193_at / Fold change /veh 11764193_at / RFU TMEM53 (11763286_at) / Fold change /veh TMEM53 (11763286_at) / RFU MAGEB2 (11727129_at) / Fold change /veh MAGEB2 (11727129_at) / RFU TMEM200A (11744735_a_at) / Fold change /veh TMEM200A (11744735_a_at) / RFU CCDC152 (11751479_a_at) / Fold change /veh CCDC152 (11751479_a_at) / RFU FAM211A (11726209_a_at) / Fold change /veh FAM211A (11726209_a_at) / RFU RGS16 (11746705_a_at) / Fold change /veh RGS16 (11746705_a_at) / RFU VCAN (11755009_s_at) / Fold change /veh VCAN (11755009_s_at) / RFU RHOB (11743442_s_at) / Fold change /veh RHOB (11743442_s_at) / RFU RGS16 (11720943_a_at) / Fold change /veh RGS16 (11720943_a_at) / RFU RGS16 (11720944_at) / Fold change /veh RGS16 (11720944_at) / RFU, VPS4B / Fold change vs veh, VPS4B / RFU, CREB1 / Fold change vs veh, CREB1 / RFU, DNAJC13 / Fold change vs veh, DNAJC13 / RFU, GNAQ / Fold change vs veh, GNAQ / RFU, CDK5R1 / Fold change vs veh, CDK5R1 / RFU, ZRANB3 / Fold change vs veh, ZRANB3 / RFU, CUL4A / Fold change vs veh, CUL4A / RFU, CCNY / Fold change vs veh, CCNY / RFU, UFL1 / Fold change vs veh, UFL1 / RFU, COG3 / Fold change vs veh, COG3 / RFU, DIAPH2 / Fold change vs veh, DIAPH2 / RFU, SKA2 / Fold change vs veh, SKA2 / RFU, AFF3 / Fold change vs veh, AFF3 / RFU, LMF1 / Fold change vs veh, LMF1 / RFU, IPO11 / Fold change vs veh, IPO11 / RFU, DFFB / Fold change vs veh, DFFB / RFU, FOXP1 / Fold change vs veh, FOXP1 / RFU, CARD8 / Fold change vs veh, CARD8 / RFU, STRN3 / Fold change vs veh, STRN3 / RFU, ADK / Fold change vs veh, ADK / RFU, RASSF2 / Fold change vs veh, RASSF2 / RFU, WIPF1 / Fold change vs veh, WIPF1 / RFU, LARP1B / Fold change vs veh, LARP1B / RFU, RASA1 / Fold change vs veh, RASA1 / RFU, RB1 / Fold change vs veh, RB1 / RFU, PPFIA1 / Fold change vs veh, PPFIA1 / RFU, MAT2A / Fold change vs veh, MAT2A / RFU, CCT5 / Fold change vs veh, CCT5 / RFU, WDR92 / Fold change vs veh, WDR92 / RFU, CUX1 / Fold change vs veh, CUX1 / RFU, TTC7A / Fold change vs veh, TTC7A / RFU, TMEM135 / Fold change vs veh, TMEM135 / RFU, DEPTOR / Fold change vs veh, DEPTOR / RFU, CPM / Fold change vs veh, CPM / RFU, DNAJB6 / Fold change vs veh, DNAJB6 / RFU, CACNA2D3 / Fold change vs veh, CACNA2D3 / RFU, DTX4 / Fold change vs veh, DTX4 / RFU, TFCP2 / Fold change vs veh, TFCP2 / RFU, GMCL1 /// GMCL1P1 / Fold change vs veh, GMCL1 /// GMCL1P1 / RFU, AEBP2 / Fold change vs veh, AEBP2 / RFU, SNHG1 /// SNORD22 /// SNORD25 /// SNORD26 /// SNORD27 /// SNORD28 /// SNORD29 /// SNORD31 / Fold change vs veh, SNHG1 /// SNORD22 /// SNORD25 /// SNORD26 /// SNORD27 /// SNORD28 /// SNORD29 /// SNORD31 / Fold change (Aza/veh), C12orf56 (ProbeSet 11735607_a_at) / Fold change (ACY-1035/veh), C12orf56 (ProbeSet 11735607_a_at) / Fold change (Aza/veh), FGFR1OP (ProbeSet 11751329_s_at) / Fold change (ACY-1035/veh), FGFR1OP (ProbeSet 11751329_s_at) / Fold change (Aza/veh), VPS36 (ProbeSet 11739960_a_at) / Fold change (ACY-1035/veh), VPS36 (ProbeSet 11739960_a_at) / RFU SYPL1 (11715823_x_at) / Fold change /veh SYPL1 (11715823_x_at) / RFU IGFBP7 (11715501_s_at) / Fold change /veh IGFBP7 (11715501_s_at) / RFU REEP3 (11722064_at) / Fold change /veh REEP3 (11722064_at) / RFU IGLL1 (11728026_x_at) / Fold change /veh IGLL1 (11728026_x_at): dose or concentration left out as unconfirmed
Conditions: MV-4-11 cells, 48 hours

Q: Nc1ncn([C@@H]2O[C@H](CO)[C@@H](O)[C@H]2O)c(=O)n1 [azacitidine] was tested. Which “RFU FAM211A (11726209_a_at)” value did it give?
A: The value was 7.10 RFU.
